The values below come from patent publication US6214801A, “Imidazo[1,2-a]pyridine C-nucleosides as antiviral agents” (The Regents of the University of Michigan, priority 1999, dated 2001).

Data set [1] in a line: in vitro. In kind it is cell-based, human. As to conditions: human, hff cells. Here is the method: (§1) KB cells (available from the American Type Culture Collection (ATCC) 12301 Parklawn Drive, […], Md. 20852 (ATCC CCL 17)), an established human cell line derived from an epidermal oral carcinoma, were grown in minimal essential medium (MEM) (Sigma) with Hanks salts (MEM(H)) supplemented with 5% fetal calf serum. Human foreskin fibroblasts (HFF cells) (provided by the University of Michigan Hospital) and African green monkey kidney cells (BSC-1) (ATTC CCL 26) cells were grown in MEM with Earl salts (MEM(E)) supplemented with 10% fetal bovine serum. Cells were passaged according to conventional procedures and as described in Shipman, C., Jr. et al. (1976) Antimicrob. Agents Chemother. Vol. 9:120 and incorporated herein by reference. Briefly, cells were passaged at 1:2 to 1:10 dilutions according to conventional procedures by using 0.05% trypsin plus 0.02% EDTA in a HEPES buffered salt solution. HFF cells were passaged onlv at 1:2 dilutions.
(§2) Two different methods were used to evaluate cytotoxicity of the compounds. First, cytotoxicity produced in stationary HFF cells was determined by microscopical examination of cells not affected by the virus used in the plaque assay. Second the effect of compounds on KB cells during two population doubling times was determined by crystal violet staining and spectrophotometric quantitation of dye eluted from stained cells. This method has been utilized for the analysis of ganciclovir and zidovudine (See Prichard, M. N. et al. Antiviral Res. (1991) Vol. 35:1060-1065).

The nature of data set [2]: Growth cytotoxicity in KB cells (crystal violet staining). In kind it is cell-based. As to conditions: human, two population doubling times, read-out: 50% Inhibitory Concentration IC50, Cytotoxicity, Growth (KB cells). Here is the method:
as §1, §2

The subject of data set [3] is HCMV. Put plainly: HCMV plaque (focus) reduction assay in HFF cells. The data set is classed as cell-based. As to conditions: for IC50: Human betaherpesvirus 5, HFF cells, 7 to 10 days, read-out: 50% Inhibitory Concentration IC50, Antiviral Activity, HCMV (plaque assay in HFF cells); for antiviral activity (in words): Table 5. As to the method: as §1
(§3) A plaque purified isolate, Po, of the Towne strain of HCMV was used in all experiments and was a gift of Dr. Mark Stinski, University of Iowa. The KOS strain of HSV-1 was used and was provided by Dr. Sandra K. Weller, University of Connecticut. Stock preparations of HCMV and HSV-1 were prepared and titered as known to those of skill and the art and described in Turk, S. R. et al. (1987) Antimicrob. Agents Chemother. Vol. 31:544-550 and Shipman, C., Jr., et al. (1990) J. Virol. Methods Vol. 28:101-106, each incorporated herein by reference.
Stock HCMV was prepared by infecting HFF cells at a multiplicity of infection (m.o.i.) of less that 0.01 plaque-forming units (p.f.u.) per cell. Cell growth medium was changed every four days until cytopathology was evident in all cells (approximately 21 days). Supernatant fluids were retained as the virus stock. Four days later, the remaining cells were disrupted by three cycles of freeze-thawing and the cell plus medium held as an additional source of virus. Storage was in liquid nitrogen.
HCMV was titered in 24-well cluster dishes which were plated to contain 5×10^4 HFF cells/well, grown as described above. When the cells were 70 to 80% confluent, 0.2 ml of the virus suspension was added per well and adsorbed as described above. At least three ten-fold dilutions of each preparation were used. Following virus adsorption, the cell sheets were overlayed with 0.5% methocel (4000 CPS) in maintenance medium [MEM(E) with 1.1 g/liter NaHCO3, 100 units/ml penicillin G, 100 μg/ml streptomycin, and 5% fetal bovine serum]. The cultures were incubated in a humidified atmosphere of 4% CO2 -96% air. Viral plaques were visible 5 to 7 days after infection using at least 10-fold magnification. Cells were fixed and stained by a 10-minute exposure to a 0.1% solution of crystal violet in 20% methanol 7 to 12 days after infection. Microscopic foci were enumerated at 20-fold magnification using a Nikon Profile Projector.
(§4) HCMV plaque reduction experiments were performed with monolayer cultures of HFF cells by a procedure similar to that referenced above for titration of the viruses and described in Devivar, R. V. et al. (1994) J. Med. Chem. Vol. 37:2942-2949. Activity of compounds against HSV-1 was evaluated using an ELISA assay.
The effect of compounds of the replication of HCMV was measured using a plaque (focus) reduction assay. For the former, HFF cells in 24-well culture dishes were infected with approximately 50 p.f.u. of HCMV per well using the procedures detailed above. Compounds dissolved in growth medium were added in four to six selected concentrations to duplicate wells following virus adsorption. Following incubation at 37 °C for 7 to 10 days, cell sheets were fixed, stained and microscopic plaques were enumerated as described above. Drug effects were calculated as a percentage of reduction in number of plaques in the presence of each drug concentration compared to the number observed in the absence of drug. […]

The test system of data set [4] is HSV-1. The data set can be described thus: HSV-1 ELISA assay. The data set is classed as cell-based, herpes simplex virus type 1, KOS strain. As to the method: as §1, §3
Briefly, high titer HSV-1 stocks were prepared as follows. Nearly confluent monolayer cultures of KB cells were grown in 32 oz. glass bottles containing MEM(E) buffered with 25 mM HEPES and supplemented with 5% fetal bovine serum and 0.127 giliter L-arginine (VGM, virus growth medium). The cultures were infected at a low input multiplicity to reduce the formation of defective virus. After cell cytopathology reached "three to four plus", the cells were harvested by vigorous shaking, and concentrated by centrifugation (800×g for 5 min.). The resulting virus pools were stored at -760C until retrieved for use in experiments.
HSV-1 was titered using monolayer cultures of BSC-1 cells. Cells were planted at 3×10^5 cells/well using 6-well cluster dishes. MEM(E) supplemented with 10% fetal bovine serum was employed as medium. After 22-24 h, cells were 90% confluent and were inoculated in triplicate using at least three ten-fold dilutions with 0.2 ml of the virus suspension to be assayed and incubated in a humidified 4% CO2 -[…] atmosphere for one hour to permit viral adsorption. Following virus adsorption, the cell sheet was overlayed with 5 ml of MEM(E) with 5% serum plus 0.5% methocel (4000 CPS) and incubated an additional two to three days. Cells were fixed and stained with 0.1% crystal violet in 20% methanol and macroscopic plaques enumerated.
as §4
ELISA techniques according to standard procedures were also used to determine activity against HSV-1. Drug effects were calculated as a percentage of the reduction in virus titers in the presence of each drug concentration compared to the titer obtained in the absence of drug. Ganciclovir was used as a positive control in all experiments.
On the technique in general: In an ELISA, binding on a coated surface is turned into a signal by an enzyme label.

For data set [5], the system named is HFF cells. Put plainly: in vitro. The data set is classed as cell-based, human. Here is the method: as §1, §2
Data set [6] deals with HCMV. To be noted: background; cited from earlier work.
Setting [7] is: Human alphaherpesvirus 1; read-out: 50% Inhibitory Concentration IC50, Antiviral Activity, HSV-1 (ELISA assay).

Where two headings read alike, the source gives them in different places.

`Clc1cn2cc(Cl)c(Cl)c(Cl)c2n1` [Compound 18, 2,6,7,8-Tetrachloro-imidazo[1,2-a]pyridine]: the CC50 in data set [1] and in data set [2] was over 100 µM throughout. For the same compound, the IC50 in data set [3] and in data set [4] (setting [7]) was over 100 µM in each case.
Regarding `O[C@@H]1[C@H](O)CO[C@@H]1c1c(Cl)nc2cc(Cl)c(Cl)cn12` [Compound +29, 2,6,7-trichloro-3-(α-D-erythrofuranosyl)imidazo[1,2-α]pyridine], the “cytotoxicity (in words)” value in data set [5] is on record as “very low cytotoxicity”. In addition, the CC50 in data set [1] and in data set [2] was over 100 µM in each case. Besides, the IC50 worked out at 4.9 µM in data set [3] and 80 µM in data set [4] (Human alphaherpesvirus 1, read-out: 50% Inhibitory Concentration IC50, Antiviral Activity, HSV-1 (ELISA assay)). In data set [3], the “antiviral activity (in words)” value was “excellent antiviral activity”.
For the compound `OC[C@H]1O[C@@H](c2c(Cl)ccc3nc(Cl)cn23)[C@H](O)[C@@H]1O` [Compound 36, 2,6-Dichloro-5-(β-D-ribofuranosyl)imidazo[1,2-a]pyridine], the CC50 in data set [1] and in data set [2] was over 100 µM throughout. The IC50 in data set [3] and in data set [4] (setting [7]) was over 100 µM each time.
Turning to `OC[C@H]1O[C@@H](c2cccc3nccn23)[C@H](O)[C@@H]1O` [Compound 45, 5-(β-D-Ribofuranosyl)imidazo[1,2-a]pyridine], the CC50 in data set [1] and in data set [2] was over 100 µM in each case. The IC50 in data set [3] and in data set [4] (setting [7]) was over 100 µM throughout.
For the compound `Clc1ccc2nc(Cl)cn2c1` [Compound 12, 2,6-Dichloro-imidazo[1,2-a]pyridine], the CC50 in data set [1] and in data set [2] was over 100 µM each time. Besides, the IC50 in data set [3] and in data set [4] (setting [7]) was over 100 µM in each case.
With `OC[C@H]1O[C@@H](n2c(Br)nc3cc(Cl)c(Cl)cc32)[C@H](O)[C@@H]1O` [BDCRB, 2-bromo-5,6-dichloro-1-(2'-β-D-ribofuranosyl)-benzimidazole], the “antiviral activity of known compounds (in words)” value in data set [6] is “useful against HCMV infections”.
Turning to `O[C@@H]1[C@@H](c2c(Cl)nc3cc(Cl)c(Cl)cn23)OC[C@@H]1O` [Compound +28, 2,6,7-Trichloro-3-(β-L-erythrofuranosyl)imidazo[1,2-a]pyridine], the CC50 in data set [1] and in data set [2] was over 100 µM in each case. Besides, the IC50 in data set [3] and in data set [4] (setting [7]) was over 100 µM in each case.
For the compound `OC[C@H]1O[C@H](c2c(Cl)ccc3nc(Cl)cn23)[C@H](O)[C@@H]1O` [Compound 38, 2,6-Dichloro-5-(α-D-ribofuranosyl)imidazo[1,2-a]pyridine], the CC50 in data set [1] and in data set [2] was over 100 µM in each case. The IC50 in data set [3] and in data set [4] (setting [7]) was over 100 µM each time.
As to `Clc1ccn2cc(Cl)nc2c1` [Compound 15, 2,7-Dichloro-imidazo[1,2-a] pyridine], the CC50 in data set [1] and in data set [2] was over 100 µM each time. Besides, the IC50 in data set [3] and in data set [4] (setting [7]) was over 100 µM throughout.
As for `Nc1nc(O)c2ncn(COC(CO)CO)c2n1` [DHPG, ganciclovir, reference compound], the CC50 in data set [1] was over 100 µM. For the same compound, in data set [3], the IC50 amounted to 7.4 µM.
Turning to `Clc1cn2cc(Cl)c(Cl)cc2n1` [Compound 16, 2,6,7-Trichloro-imidazo[1,2-a]pyridine], the CC50 in data set [1] and in data set [2] was over 100 µM in each case. Besides, the IC50 in data set [3] and in data set [4] (setting [7]) was over 100 µM throughout.
For `O[C@H]1[C@@H](O)CO[C@H]1c1c(Cl)nc2cc(Cl)c(Cl)cn12` [Compound -29], in data set [5], the “cytotoxicity (in words)” value is recorded as “very low cytotoxicity”. The “antiviral activity (in words)” value in data set [3] is “excellent antiviral activity”.
Take `OC[C@H]1O[C@H](c2c(Cl)c(Cl)cc3nc(Cl)cn23)[C@H](O)[C@@H]1O` [Compound 43, 2,6,7-Trichloro-5-(α-D-ribofuranosyl)imidazo[1,2-a]pyridine]: the CC50 in data set [1] and in data set [2] was over 100 µM throughout. The IC50 in data set [3] and in data set [4] (setting [7]) was over 100 µM each time.
For `O[C@H]1[C@@H](O)CO[C@H]1c1c(Cl)nc2cc(Cl)c(Cl)cn12` [Compound -29, 2,6,7-dichloro-3-(α-L-erythrofuranosyl)imidazo[1,2-α]pyridine], the CC50 in data set [1] and in data set [2] was over 100 µM each time. Also, the IC50 in data set [3] was 17 µM; in data set [4] (setting [7]) it was over 100 µM.
On to `O[C@@H]1[C@H](O)CO[C@H]1c1c(Cl)nc2cc(Cl)c(Cl)cn12` [Compound -28, 2,6,7-Trichloro-3-(β-D-erythrofuranosyl)imidazo[1,2-a]pyridine], for which the CC50 in data set [1] and in data set [2] was over 100 µM each time. The IC50 in data set [3] and in data set [4] (setting [7]) was over 100 µM throughout.
In the case of `OC[C@H]1O[C@@H](c2c(Cl)c(Cl)cc3nc(Cl)cn23)[C@H](O)[C@@H]1O` [Compound 42, 2,6,7-Trichloro-5-(β-D-ribofuranosyl)imidazo[1,2-a]pyridine], the CC50 in data set [1] and in data set [2] was over 100 µM throughout. The IC50 in data set [3] and in data set [4] (setting [7]) was over 100 µM throughout.
